Source: paper PMC8491704, “Pharmacokinetic study of Tangwang Mingmu granule for the management of diabetic retinopathy based on network pharmacology” (Pharmaceutical Biology, 2021)
Like-named read-outs stand apart in the source and are kept apart here.

Experiments:
[1] = Pharmacokinetic study in SD rats after oral administration of TWMM (UPLC-QQQ-MS of plasma); assay type: in vivo, Sprague-Dawley (SD) rats; conditions: oral TWMM 9.6 g/kg; for AUC(0-t): n = 6, read-out: AUC (0–36); for Cmax: n = 6, read-out: Cmax; for MRT last: n = 6, read-out: MRT (0–36); for MRT inf: n = 6, read-out: MRT (0–∞); for AUC(0-inf): read-out: areas under the concentration-time curve (AUC0–∞)
Procedure: Chromatographic separation was performed using an ACQUITY UPLC H-Class system equipped with a 1.8 μm HSS T3 analytical column (100 mm × 2.1 i.d., Waters Corporation, Milford, USA). […] ESI source was set to negative ionisation mode while the analysis was performed using multiple reaction monitorin. Ion spray voltage (3000 V), capillary temperature (450 °C), and the source parameters of the nine compounds are shown in Table 2.
The data obtained from the UPLC/Q-Orbitrap MS was imported into Xcalibur 4.0 software for analysis. Furthermore, the constituents acquired using GCMS-QP 2010 were profiled by comparison using the National Institute of Standards and Technology (NIST) database. The pharmacokinetic data were processed through MassLynx 4.1, and DAS 2.0 software was used to calculate the pharmacokinetic parameters according to the compartment model.
Six male SD rats (average weight: 220 ± 10 g) were acquired from Beijing Vital-River Laboratory Animal Technology Co., Ltd. All rats were acclimatized to an environmentally controlled laboratory for a week. Following this period, the rats were exposed to fasting conditions for 12 h but were allowed free access to water before the experiment. The rats were orally administered TWMM at a dose of 9.6 g/kg. Blood samples (300 µL) were collected into heparinized centrifuge tubes from the fossa orbitalis at pre-dose and 0.03, 0.08, 0.17, 0.25, 0.5, 1, 2, 4, 8, 12, 24, and 36 h intervals. The samples were immediately centrifuged at 6000 g for 10 min at 4 °C and the supernatants were transferred to clean centrifuge tubes.
Each 100 µL plasma sample was mixed with 20 µL of methanol, 20 µL of IS (5 µg/mL), and 600 µL acetonitrile. The mixtures were centrifuged at 15,000 g for 10 min at 4 °C after being vortexed for 3 min. The obtained supernatants were transferred to clean 1.5 mL centrifuge tubes, followed by evaporation under a milt nitrogen stream. Next, the obtained residues were individually redissolved in 100 µL of methanol and centrifuged at 15,000 g for 10 min at 4 °C after vortexed for 3 min. Lastly, 10 µL of individual supernatant was injected for analysis.

[2] = Stability of QC samples of 8 compounds in rat plasma (25 °C 4 h, autosampler 12 h, three freeze-thaw cycles, −80 °C 7 d); assay type: in vitro ADME; conditions: rat, plasma; for Stability in rat plasma, Long term (7 day, –80 °C), Measured: 168 h
Procedure: The calibration curves were assessed at eight concentration levels using the correlation coefficient (r). The lower limit of quantification (LLOQ) could fulfil the analytical requirements and achieved reliable accuracy and precision with a signal-to-noise ratio (S/N) ≥ 10. To determine intra- and inter-day precision and accuracy, six replicate quality control (QC) samples at three concentrations were prepared. Inter- and intra-day precision was evaluated by determining relative standard deviation (RSD) values, while accuracy was expressed in terms of the relative error (RE). The extraction recoveries were determined using three concentration levels and calculated by comparing the peak area of extracted samples with post-extracted spiked samples. Subsequently, matrix effects were assessed using the peak area of post-extracted spiked samples contrasted with QC samples at the three concentration levels. The stability test of QC samples at the three concentration levels was as follows: storage at 25 °C for 4 h, storage in an autosampler for 12 h, freeze-thaw cycle for three times, and storage at −80 °C for 7 d.
The stability tests were carried out under three freeze-thaw cycles, at 25 °C for 4 h, in an autosampler for 12 h, and at −80 °C for 7 d.

HUVEC cells = assay: Assay of intracellular reactive oxygen species (ROS), DCFH-DA, high glucose; assay type: cell-based, human; conditions: luteolin 20, 10, 5 µM or formononetin 40, 20, 10 µM for 2 h, then high glucose 24 h
Procedure: The generation of ROS was detected using dichloro-dihydro-fluorescein diacetate (DCFH-DA, reactive oxygen species assay kit, Solarbio, Beijing) as per manufacturer instructions. In this study, we seeded HUVEC cells in a 96-well plate at 7 × 10^3 per well. […] DCF fluorescence was assessed at F488/525 nm by using a bioassay multi-detection fluorescent plate reader (Tecan Spark, Switzerland).

[3] = parameters: method as in Guan et al. 2014; Cheruvu et al. 2018; Jia et al. 2020; conditions: in different herbal extracts and prescriptions; ref Guan et al. 2014; Cheruvu et al. 2018; Jia et al. 2020; cited from earlier work
[4] = male, Sprague-Dawley, rat, n = 6
[5] = male, Sprague-Dawley, rat, po, 9.6 g/kg, n = 6, read-out: Tmax

Row | half-life [1, 4] | AUC(0-t) ([1]; male, Sprague-Dawley, rat) | Cmax ([1]; male, Sprague-Dawley, rat) | MRT last ([1]; male, Sprague-Dawley, rat) | MRT inf ([1]; male, Sprague-Dawley, rat) | AUC(0-inf) ([1]; male, Sprague-Dawley, rat) | Tmax [1, 5] | Stability in rat plasma, Three freeze/thaw cycles, Measured ([2]; 1 ng/mL) | Stability in rat plasma, Three freeze/thaw cycles, Measured ([2]; 10 ng/mL) | Stability in rat plasma, Three freeze/thaw cycles, Measured ([2]; 200 ng/mL) | Stability in rat plasma, Room temperature (4 h, 25 °C), Measured ([2]; 1 ng/mL) | Stability in rat plasma, Room temperature (4 h, 25 °C), Measured ([2]; 10 ng/mL) | Stability in rat plasma, Room temperature (4 h, 25 °C), Measured ([2]; 200 ng/mL) | Stability in rat plasma, Autosampler (12 h, 4 °C), Measured ([2]; 1 ng/mL) | Stability in rat plasma, Autosampler (12 h, 4 °C), Measured ([2]; 10 ng/mL) | Stability in rat plasma, Autosampler (12 h, 4 °C), Measured ([2]; 200 ng/mL) | Stability in rat plasma, Long term (7 day, –80 °C), Measured ([2]; 1 ng/mL) | Stability in rat plasma, Long term (7 day, –80 °C), Measured ([2]; 10 ng/mL) | Stability in rat plasma, Long term (7 day, –80 °C), Measured ([2]; 200 ng/mL) | Compound | ROS generation induced by HG (HUVEC cells) | also measured
1 | 11.1 ± 10.2 h | 38.5 ± 7.61 ng·h/mL | 3.27 ± 0.78 ng/mL | 11.4 ± 1.23 h | 18.2 ± 9.14 h | 44 ± 4.19 ng·h/mL | 1.71 ± 1.79 h | 1.1 ± 0.1 ng/mL | 11.4 ± 0.8 ng/mL | 218.0 ± 9.9 ng/mL | 1.2 ± 0.1 ng/mL | 11.3 ± 0.3 ng/mL | 217.9 ± 11.7 ng/mL | 1.1 ± 0.1 ng/mL | 10.0 ± 0.2 ng/mL | 205.6 ± 0.9 ng/mL | 1.0 ± 0.1 ng/mL | 10.4 ± 0.6 ng/mL | 221.9 ± 6.8 ng/mL | O=c1cc(-c2ccc(O)c(O)c2)oc2cc(O)cc(O)c12 [Luteolin] | could alleviate the symptom of DR | Tmax [3]: 0.50 to 2.83 h; t1/2 [3]: 3.63 to 12.10 h
2 | 11.7 ± 2.09 h | 40.8 ± 8.51 ng·h/mL | 6.17 ± 1.65 ng/mL | 10.7 ± 1.17 h | 15.7 ± 1.9 h | 46 ± 7.89 ng·h/mL | – | 1.0 ± 0.1 ng/mL | 10.1 ± 1.0 ng/mL | 206.3 ± 21.0 ng/mL | 1.1 ± 0.1 ng/mL | 11.8 ± 0.2 ng/mL | 220.6 ± 3.5 ng/mL | 1.2 ± 0.1 ng/mL | 10.1 ± 0.2 ng/mL | 222.6 ± 3.6 ng/mL | 1.1 ± 0.1 ng/mL | 10.2 ± 0.2 ng/mL | 216.0 ± 4.3 ng/mL | COc1ccc(-c2coc3cc(O)ccc3c2=O)cc1 [Formononetin] | could alleviate the symptom of DR | Tmax ([1]; n = 6): 0.46 ± 0.29 h; Tmax ([1]; n = 6, listed as formononetin): ≤ 1 h
3 | 2.71 ± 0.11 h | 34 ± 4.55 ng·h/mL | 16.1 ± 4.17 ng/mL | 4.97 ± 0.71 h | 4.97 ± 0.71 h | 34 ± 4.55 ng·h/mL | ≤ 1 h | 1.1 ± 0.1 ng/mL | 9.8 ± 0.8 ng/mL | 212.6 ± 19.4 ng/mL | 1.2 ± 0.1 ng/mL | 9.2 ± 0.6 ng/mL | 187.6 ± 4.2 ng/mL | 0.9 ± 0.1 ng/mL | 9.1 ± 1.1 ng/mL | 200.0 ± 14.0 ng/mL | 1.0 ± 0.1 ng/mL | 10.3 ± 0.5 ng/mL | 214.4 ± 10.5 ng/mL | O=C(/C=C/c1ccc(O)c(O)c1)O[C@@H]1C[C@](O)(C(=O)O)C[C@@H](O)[C@H]1O [Chlorogenic acid] | – | t1/2 ([1]; n = 6): rapid elimination
